Our source for the inhibition of growth, melting point and pest or weed control values is patent US10798941B2, “Microbiocidal oxadiazole derivatives” (SYNGENTA PARTICIPATIONS AG, priority 2016, dated 2020).

“And” between values parts separate entries of the source, which are not always exact repeats. Equal values may be shown once.

Data set [1] has as its system Glomerella Lagenarium (Colletotrichum Lagenarium). Description: Glomerella lagenarium (Colletotrichum lagenarium) liquid culture / cucumber / preventative (anthracnose). The class given is cell-based. Conditions: Colletotrichum orbiculare; 20 ppm in the applied formulation; liquid culture in PDB, 24° C., inhibition of growth measured photometrically 3 to 4 days after application, vs untreated; read-out: disease control. An outline of the steps: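 Conidia from cryogenic storage were mixed into potato dextrose broth. This was added to compound diluted from DMSO into 0.025% Tween20, tested at 20 ppm. Plates were incubated in the dark at 24 °C and 96% relative humidity, and growth was read photometrically after 2–7 days as % activity versus untreated check.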

Another data set deals with Phakopsora pachyrhizi. Description: Phakopsora pachyrhizi / soybean / leaf disc preventative (Asian soybean rust). Type of data set: in vivo. Conditions: foliar, 288 h, 200 ppm in the applied formulation, soybean leaf disks, inoculated one day after application, assessed 12 to 14 days after application, vs untreated, read-out: disease control. Put shortly: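 Read-out is percent disease control relative to untreated check discs, assessed once untreated discs show adequate disease, 12 to 14 days after application. Compounds, tested at 200 ppm in the applied formulation, are sprayed onto soybean leaf discs one day before inoculation with a spore suspension.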

Data set [2] relates to Puccinia recondita f. Sp. Tritici. Description: Puccinia recondita f. sp. tritici / wheat / leaf disc preventative (brown rust). Type of data set: in vivo. As to conditions: foliar, 168 h, 200 ppm in the applied formulation, wheat leaf segments cv. Kanzler, preventative, inoculated 1 day after application, assessed 7 to 9 days after application, vs untreated, read-out: disease control. An outline of the steps:
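Wheat cv. Kanzler leaf segments on agar were sprayed with formulated compound in water, then inoculated with spores 1 day later. Incubated at 19° C, 75% rh, 12 h light/12 h dark; percent disease control versus untreated scored 7 to 9 days after application.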

The test system is the same in data set [3]. Description: Puccinia recondita f. sp. tritici / wheat / leaf disc curative (brown rust). Type of data set: in vivo. Conditions: foliar, 144 h, 200 ppm in the applied formulation, wheat leaf segments cv. Kanzler, applied 1 day after inoculation, assessed 6 to 8 days after application, vs untreated, read-out: disease control. An outline of the steps:
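Spray application came one day after spore inoculation of Kanzler wheat leaf segments kept on agar. Conditions: 19° C, 75% relative humidity, dark before treatment and 12 h light/12 h dark after. Efficacy = % disease control compared with untreated, 6–8 days post-application.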

For orientation: melting point means the temperature, or range, at which the solid turns liquid. For `FC(F)(F)c1nc(-c2ccc(Cn3cc(C4CCCC4)nn3)cc2)no1` [Compound 1.24, 3-[4-[(4-cyclopentyltriazol-1-yl)methyl]phenyl]-5-(trifluoromethyl)-1,2,4-oxadiazole], the melting point was 117.9 to 118.8 °C and 117 to 119 °C. For the same compound, the inhibition of growth at 20 ppm in data set [1] is not below 80%. Besides, the pest or weed control at 200 ppm with Phakopsora pachyrhizi is not below 80%. Besides, in data set [2], the pest or weed control at 200 ppm is not below 80%.

Compound `FC(F)(F)c1nc(-c2ccc(Cn3cc(COc4ccccc4)nn3)cc2)no1` [Compound 1.28, 3-[4-[[4-(phenoxymethyl)triazol-1-yl]methyl]phenyl]-5-(trifluoromethyl)-1,2,4-oxadiazole] displayed a melting point of 103.2 to 104.9 °C. The inhibition of growth at 20 ppm in data set [1] was not below 80%. Also, in the data set with Phakopsora pachyrhizi, the pest or weed control at 200 ppm was not below 80%. Further, in data set [2], the pest or weed control at 200 ppm was not below 80%.

The compound `N#Cc1ncn(Cc2ccc(-c3noc(C(F)(F)F)n3)c(F)c2)n1` [Compound 1.255, 1-[[3-fluoro-4-[5-(trifluoromethyl)-1,2,4-oxadiazol-3-yl]phenyl]methyl]-1,2,4-triazole-3-carbonitrile] returned a melting point of 120 to 123 °C. Also, in data set [1], the inhibition of growth at 20 ppm was not below 80%. In addition, in data set [3], the pest or weed control at 200 ppm was not below 80%. In data set [2], the pest or weed control at 200 ppm is not below 80%.

In turn, `CCOC(=O)c1cnn(Cc2ccc(-c3noc(C(F)(F)F)n3)nc2)c1` [Compound 1.269, ethyl 1-[[6-[5-(trifluoromethyl)-1,2,4-oxadiazol-3-yl]-3-pyridyl]methyl]pyrazole-4-carboxylate] registered a melting point of 88 to 90 °C. The inhibition of growth at 20 ppm in data set [1] was not below 80%. In data set [3], the pest or weed control at 200 ppm is not below 80%. Besides, the pest or weed control at 200 ppm in data set [2] is not below 80%.

Consider `CCOC(=O)c1cn(Cc2ccc(-c3noc(C(F)(F)F)n3)cc2)nn1` [Compound 1.276, ethyl 1-[[4-[5-(trifluoromethyl)-1,2,4-oxadiazol-3-yl]phenyl]methyl]triazole-4-carboxylate], for which the melting point was 134 to 136 °C. The inhibition of growth at 20 ppm in data set [1] is not below 80%. Also, the pest or weed control at 200 ppm with Phakopsora pachyrhizi is not below 80%. Besides, the pest or weed control at 200 ppm in data set [2] is not below 80%.

In turn, `CC(C)OC(=O)c1cn(Cc2ccc(-c3noc(C(F)(F)F)n3)cc2)nn1` [Compound 1.278, isopropyl 1-[[4-[5-(trifluoromethyl)-1,2,4-oxadiazol-3-yl]phenyl]methyl]triazole-4-carboxylate] gave a melting point of 146 to 148 °C. Besides, the inhibition of growth at 20 ppm in data set [1] was not below 80%. Also, the pest or weed control at 200 ppm with Phakopsora pachyrhizi is not below 80%. In addition, in data set [2], the pest or weed control at 200 ppm is not below 80%.

`COc1ccc(NC(=O)c2cn(Cc3ccc(-c4noc(C(F)(F)F)n4)cc3)nn2)cc1` [Compound 1.281, N-(4-methoxyphenyl)-1-[[4-[5-(trifluoromethyl)-1,2,4-oxadiazol-3-yl]phenyl]methyl]triazole-4-carboxamide] had a melting point of 205 to 207 °C. Also, the inhibition of growth at 20 ppm in data set [1] is not below 80%. Further, the pest or weed control at 200 ppm in data set [3] was not below 80%. For the same compound, in data set [2], the pest or weed control at 200 ppm is not below 80%.

`CCON=Cc1cnn(Cc2ccc(-c3noc(C(F)(F)F)n3)cc2)c1` [Compound 1.286, N-ethoxy-1-[1-[[4-[5-(trifluoromethyl)-1,2,4-oxadiazol-3-yl]phenyl]methyl]pyrazol-4-yl]methanimine] gave a melting point of 80 to 120 °C. Also, the inhibition of growth at 20 ppm in data set [1] was not below 80%. Besides, in the data set on Phakopsora pachyrhizi, the pest or weed control at 200 ppm was not below 80%. Moreover, in data set [2], the pest or weed control at 200 ppm was not below 80%.

`CCCON=Cc1cnn(Cc2ccc(-c3noc(C(F)(F)F)n3)cc2)c1` [Compound 1.287, N-propoxy-1-[1-[[4-[5-(trifluoromethyl)-1,2,4-oxadiazol-3-yl]phenyl]methyl]pyrazol-4-yl]methanimine] had a melting point of 60 to 95 °C. The inhibition of growth at 20 ppm in data set [1] was not below 80%. Moreover, the pest or weed control at 200 ppm in data set [3] is not below 80%. The pest or weed control at 200 ppm in data set [2] is not below 80%.

`CS(=O)(=O)c1ncnn1Cc1ccc(-c2noc(C(F)(F)F)n2)cc1` [Compound 1.294, 3-[4-[(5-methylsulfonyl-1,2,4-triazol-1-yl)methyl]phenyl]-5-(trifluoromethyl)-1,2,4-oxadiazole] came in with a melting point of 119.2 to 119.8 °C. In addition, the inhibition of growth at 20 ppm in data set [1] was not below 80%. Further, the pest or weed control at 200 ppm in data set [3] is not below 80%. Besides, the pest or weed control at 200 ppm in data set [2] is not below 80%.

The compound `C[S+]([O-])c1ncnn1Cc1ccc(-c2noc(C(F)(F)F)n2)cc1` (stereo not shown) [Compound 1.295, 3-[4-[(5-methylsulfinyl-1,2,4-triazol-1-yl)methyl]phenyl]-5-(trifluoromethyl)-1,2,4-oxadiazole] showed a melting point of 71.2 to 73.7 °C. Also, in data set [1], the inhibition of growth at 20 ppm was not below 80%. For the same compound, the pest or weed control at 200 ppm in data set [3] is not below 80%. In data set [2], the pest or weed control at 200 ppm is not below 80%.

On to `CS(=O)(=O)c1ncn(Cc2ccc(-c3noc(C(F)(F)F)n3)cc2)n1` [Compound 1.296, 3-[4-[(3-methylsulfonyl-1,2,4-triazol-1-yl)methyl]phenyl]-5-(trifluoromethyl)-1,2,4-oxadiazole], for which the melting point is 145.4 to 146.4 °C. In addition, the inhibition of growth at 20 ppm in data set [1] is not below 80%. In data set [3], the pest or weed control at 200 ppm was not below 80%. Besides, the pest or weed control at 200 ppm in data set [2] was not below 80%.

Turning to `C[S+]([O-])c1ncn(Cc2ccc(-c3noc(C(F)(F)F)n3)cc2)n1` (stereo not shown) [Compound 1.297, 3-[4-[(3-methylsulfinyl-1,2,4-triazol-1-yl)methyl]phenyl]-5-(trifluoromethyl)-1,2,4-oxadiazole], the melting point fell in the range of 114.4 to 115.2 °C. For the same compound, the inhibition of growth at 20 ppm in data set [1] was not below 80%. Moreover, the pest or weed control at 200 ppm in data set [3] was not below 80%. For the same compound, in data set [2], the pest or weed control at 200 ppm is not below 80%.

In turn, `CSc1ncnn1Cc1ccc(-c2noc(C(F)(F)F)n2)cc1` [Compound 1.298, 3-[4-[(5-methylsulfanyl-1,2,4-triazol-1-yl)methyl]phenyl]-5-(trifluoromethyl)-1,2,4-oxadiazole] displayed a melting point of 72 to 73.2 °C. For the same compound, the inhibition of growth at 20 ppm in data set [1] is not below 80%. Also, in data set [3], the pest or weed control at 200 ppm was not below 80%. The pest or weed control at 200 ppm in data set [2] is not below 80%.

As for `CSc1ncn(Cc2ccc(-c3noc(C(F)(F)F)n3)cc2)n1` [Compound 1.299, 3-[4-[(3-methylsulfanyl-1,2,4-triazol-1-yl)methyl]phenyl]-5-(trifluoromethyl)-1,2,4-oxadiazole], the melting point lay within 88 to 90.4 °C. Also, the inhibition of growth at 20 ppm in data set [1] was not below 80%. For the same compound, the pest or weed control at 200 ppm in data set [3] was not below 80%. For the same compound, the pest or weed control at 200 ppm in data set [2] is not below 80%.

`FC(F)(F)c1nc(-c2ccc(CN3CCSCC3)cc2)no1` [Compound 1.302, 3-[4-(thiomorpholino-methyl)phenyl]-5-(trifluoromethyl)-1,2,4-oxadiazole] gave a melting point of 54.5 to 56.6 °C. Besides, the inhibition of growth at 20 ppm in data set [1] is not below 80%. The pest or weed control at 200 ppm in data set [3] is not below 80%. Moreover, the pest or weed control at 200 ppm in data set [2] was not below 80%.

Regarding `CCOC(=O)c1cnn(CCc2ccc(-c3noc(C(F)(F)F)n3)cc2)c1` [Compound 1.310, ethyl 1-[2-[4-[5-(trifluoromethyl)-1,2,4-oxadiazol-3-yl]phenyl]ethyl]pyrazole-4-carboxylate], the melting point lay in the range of 108 to 110 °C. The pest or weed control at 200 ppm in the data set on Phakopsora pachyrhizi is not below 80%. In addition, the pest or weed control at 200 ppm in data set [2] is not below 80%.
